The structures appear in SMILES notation. Active and inactive are the calls of the source. How the calls were made is not given here.

Experimental findings from PubChem BioAssay AID1259407 (Chemical Carcinogenesis Research Information System (CCRIS), 2018) are described below.

In the data set the test system is CCRIS mutagenicity, Ames/micronucleus/aberration tests. The experiment in a line: CCRIS mutagenicity studies.
Where [1] appears, read: Test System: AMES SALMONELLA TYPHIMURIUM, Strain/Indicator: TA98, Metabolic Activation: HAMSTER, LIVER, S-9, AROCLOR 1254 (10%), Method: PREINCUBATION
Where [2] appears, read: Test System: AMES SALMONELLA TYPHIMURIUM, Strain/Indicator: TA98, Metabolic Activation: NONE, Method: PREINCUBATION
Where [3] appears, read: Test System: AMES SALMONELLA TYPHIMURIUM, Strain/Indicator: TA98, Metabolic Activation: NONE, Method: STANDARD PLATE.
Setting [4] is: Test System: AMES SALMONELLA TYPHIMURIUM, Strain/Indicator: TA98, Metabolic Activation: RAT, LIVER, S-9, AROCLOR 1254 (10%), Method: PREINCUBATION
[5] abbreviates: Test System: AMES SALMONELLA TYPHIMURIUM, Strain/Indicator: TA100, Metabolic Activation: HAMSTER, LIVER, S-9, AROCLOR 1254 (10%), Method: PREINCUBATION
Setting [6] is: Test System: AMES SALMONELLA TYPHIMURIUM, Strain/Indicator: TA100, Metabolic Activation: NONE, Method: PREINCUBATION
Setting [7] is: Test System: AMES SALMONELLA TYPHIMURIUM, Strain/Indicator: TA100, Metabolic Activation: NONE, Method: STANDARD PLATE.
[8] abbreviates: Test System: AMES SALMONELLA TYPHIMURIUM, Strain/Indicator: TA100, Metabolic Activation: RAT, LIVER, S-9, AROCLOR 1254 (10%), Method: PREINCUBATION
[9] abbreviates: Test System: AMES SALMONELLA TYPHIMURIUM, Strain/Indicator: TA1535, Metabolic Activation: HAMSTER, LIVER, S-9, AROCLOR 1254 (10%), Method: PREINCUBATION
The mark [10] stands for this setting: Test System: AMES SALMONELLA TYPHIMURIUM, Strain/Indicator: TA1535, Metabolic Activation: NONE, Method: PREINCUBATION
Where [11] appears, read: Test System: AMES SALMONELLA TYPHIMURIUM, Strain/Indicator: TA1535, Metabolic Activation: RAT, LIVER, S-9, AROCLOR 1254 (10%), Method: PREINCUBATION
The mark [12] stands for this setting: Test System: AMES SALMONELLA TYPHIMURIUM, Strain/Indicator: TA1537, Metabolic Activation: HAMSTER, LIVER, S-9, AROCLOR 1254 (10%), Method: PREINCUBATION
Setting [13] is: Test System: AMES SALMONELLA TYPHIMURIUM, Strain/Indicator: TA1537, Metabolic Activation: NONE, Method: PREINCUBATION
The mark [14] stands for this setting: Test System: AMES SALMONELLA TYPHIMURIUM, Strain/Indicator: TA1537, Metabolic Activation: RAT, LIVER, S-9, AROCLOR 1254 (10%), Method: PREINCUBATION
The mark [15] stands for this setting: Test System: AMES SALMONELLA TYPHIMURIUM, Strain/Indicator: TA97, Metabolic Activation: NONE, Method: STANDARD PLATE.
Where [16] appears, read: Test System: AMES SALMONELLA TYPHIMURIUM, Strain/Indicator: TA97, Metabolic Activation: RAT, LIVER, S-9, AROCLOR 1254, Method: STANDARD PLATE.
Setting [17] is: Test System: AMES SALMONELLA TYPHIMURIUM, Strain/Indicator: TA98, Metabolic Activation: RAT, LIVER, S-9, AROCLOR 1254, Method: STANDARD PLATE.
[18] abbreviates: Test System: AMES SALMONELLA TYPHIMURIUM, Strain/Indicator: TA100, Metabolic Activation: RAT, LIVER, S-9, AROCLOR 1254, Method: STANDARD PLATE.
[19] abbreviates: Test System: AMES SALMONELLA TYPHIMURIUM, Strain/Indicator: TA104, Metabolic Activation: NONE, Method: STANDARD PLATE.
Setting [20] is: Test System: AMES SALMONELLA TYPHIMURIUM, Strain/Indicator: TA104, Metabolic Activation: RAT, LIVER, S-9, AROCLOR 1254, Method: STANDARD PLATE.

Consider `COc1ccc(C=O)cc1OC`, for which the mutagenic call is “inactive; negative” under setting [1]; “inactive; negative” under setting [2]; “inactive; negative” under setting [3]; “inactive; negative” under setting [4]; “inactive; negative” under setting [5]; “inactive; negative” under setting [6]. Besides, the mutagenic call is “inactive; negative” under setting [7]; “inactive; negative” (Test System: AMES SALMONELLA TYPHIMURIUM, Strain/Indicator: TA100, Metabolic Activation: RAT LIVER S-9, AROCLOR 1254, Method: PREINCUBATION); “inactive; negative” under setting [8]; “inactive; negative” (Test System: AMES SALMONELLA TYPHIMURIUM, Strain/Indicator: TA102, Metabolic Activation: NONE, Method: PREINCUBATION); “inactive; negative” (Test System: AMES SALMONELLA TYPHIMURIUM, Strain/Indicator: TA102, Metabolic Activation: RAT LIVER S-9, AROCLOR 1254, Method: PREINCUBATION); “inactive; negative” (Test System: AMES SALMONELLA TYPHIMURIUM, Strain/Indicator: TA104, Metabolic Activation: NONE, Method: PREINCUBATION). In addition, the mutagenic call was “inactive; negative” (Test System: AMES SALMONELLA TYPHIMURIUM, Strain/Indicator: TA104, Metabolic Activation: RAT LIVER S-9, AROCLOR 1254, Method: PREINCUBATION); “inactive; negative” under setting [9]; “inactive; negative” under setting [10]; “inactive; negative” under setting [11]; “inactive; negative” under setting [12]; “inactive; negative” under setting [13]. Further, the mutagenic call under setting [14] was “inactive; negative”; the mutagenic call (Test System: E. COLI, Strain/Indicator: CM561 LEXA, Metabolic Activation: NONE, Method: STANDARD PLATE) was “inactive; negative”; the mutagenic call (Test System: E. COLI, Strain/Indicator: CM611 UVRA/LEXA, Metabolic Activation: NONE, Method: STANDARD PLATE) is “inactive; negative”; the mutagenic call (Test System: E. COLI, Strain/Indicator: WP2 UVRA, Metabolic Activation: NONE, Method: STANDARD PLATE) is “inactive; negative”.

On to `Br/C=C/Br`, for which the mutagenic call reads like this: under setting [15], “inactive; negative”; under setting [16], “active; positive”; under setting [3], “active; positive”; under setting [17], “active; positive”; under setting [7], “active; positive”; under setting [18], “active; positive”. For the same compound, the mutagenic call was “inactive; negative” under setting [19] and “active; positive” under setting [20].

As for `O=C(O)c1ccc(S(=O)(=O)N(Cl)Cl)cc1`, the mutagenic call is, setting by setting: under setting [1], “inactive; negative”; under setting [2], “inactive; negative”; under setting [4], “inactive; negative”; under setting [5], “inactive; negative”; under setting [6], “inactive; negative”; under setting [8], “inactive; negative”. The mutagenic call is “inactive; negative” under setting [9]; “inactive; negative” under setting [10]; “inactive; negative” under setting [11]; “inactive; negative” under setting [12]; “inactive; negative” under setting [13]; “inactive; negative” under setting [14].

In the case of `Cl/C=C/Cl`, the mutagenic call was “inactive; negative” (End Point: IN VITRO CHROMOSOMAL ABERRATIONS, Test System: CHINESE HAMSTER LUNG (CHL), Metabolic Activation: NONE); “inactive; negative” (End Point: IN VITRO CHROMOSOMAL ABERRATIONS, Test System: CHINESE HAMSTER LUNG (CHL), Metabolic Activation: RAT, LIVER, S-9, KC-400); “inactive; negative” under setting [15]; “active; positive” under setting [16]; “inactive; negative” (Test System: AMES SALMONELLA TYPHIMURIUM, Strain/Indicator: TA98, Metabolic Activation: HAMSTER LIVER S-9, AROCLOR 1254 (10%), Method: PREINCUBATION); “inactive; negative” under setting [1]. Further, the mutagenic call runs as follows: under setting [2], “inactive; negative”; under setting [3], “inactive; negative”; (Test System: AMES SALMONELLA TYPHIMURIUM, Strain/Indicator: TA98, Metabolic Activation: RAT LIVER S-9, AROCLOR 1254 (10%), Method: PREINCUBATION) “inactive; negative”; under setting [4], “inactive; negative”; under setting [17], “active; positive”; (Test System: AMES SALMONELLA TYPHIMURIUM, Strain/Indicator: TA100, Metabolic Activation: HAMSTER LIVER S-9, AROCLOR 1254 (10%), Method: PREINCUBATION) “inactive; negative”. The mutagenic call is, setting by setting: under setting [5], “inactive; negative”; under setting [6], “inactive; negative”; under setting [7], “active; positive”; (Test System: AMES SALMONELLA TYPHIMURIUM, Strain/Indicator: TA100, Metabolic Activation: RAT LIVER S-9, AROCLOR 1254 (10%), Method: PREINCUBATION) “inactive; negative”; under setting [8], “inactive; negative”; under setting [18], “active; positive”. Besides, the mutagenic call under setting [19] was “inactive; negative”; the mutagenic call under setting [20] was “inactive; negative”; the mutagenic call (Test System: AMES SALMONELLA TYPHIMURIUM, Strain/Indicator: TA1535, Metabolic Activation: HAMSTER LIVER S-9, AROCLOR 1254 (10%), Method: PREINCUBATION) is “inactive; negative”; the mutagenic call under setting [9] was “inactive; negative”; the mutagenic call under setting [10] was “inactive; negative”; the mutagenic call (Test System: AMES SALMONELLA TYPHIMURIUM, Strain/Indicator: TA1535, Metabolic Activation: RAT LIVER S-9, AROCLOR 1254 (10%), Method: PREINCUBATION) was “inactive; negative”. Also, the mutagenic call under setting [11] was “inactive; negative”; the mutagenic call (Test System: AMES SALMONELLA TYPHIMURIUM, Strain/Indicator: TA1537, Metabolic Activation: HAMSTER LIVER S-9, AROCLOR 1254 (10%), Method: PREINCUBATION) is “inactive; negative”; the mutagenic call under setting [12] is “inactive; negative”; the mutagenic call under setting [13] is “inactive; negative”; the mutagenic call (Test System: AMES SALMONELLA TYPHIMURIUM, Strain/Indicator: TA1537, Metabolic Activation: RAT LIVER S-9, AROCLOR 1254 (10%), Method: PREINCUBATION) was “inactive; negative”; the mutagenic call under setting [14] is “inactive; negative”.

Turning to `O[C@H]1C=Cc2ccc3c(sc4ccccc43)c2[C@@H]1O`, the mutagenic call (Test System: AMES SALMONELLA TYPHIMURIUM, Strain/Indicator: TA100, Metabolic Activation: RAT, LIVER, S-9, AROCLOR 1254, Method: PREINCUBATION) is “inactive; negative”.
